A short description of data set [1]: in vitro. Conditions: PAMPA, pH 7.4. In general terms: In PAMPA a lipid-coated filter parts donor from acceptor wells.
Description: Permeability of the compound in phosphate buffer at pH 7.4 by PAMPA
Data set [2] has as its target T1, Beta-secretase 1 (Homo sapiens, UniProt P56817). The data set is described as follows: Competitive inhibition of human recombinant […] using panvera peptide as substrate preincubated for 60 mins before substrate addition by FRET assay.
Data set [3] addresses Acetylcholinesterase (Homo sapiens, UniProt P22303).
Description: Inhibition of human erythrocytes AChE by Ellman's method
For data set [4], the target named is T2, Acetylcholinesterase (Bos taurus, UniProt P23795).
T2 sequence (P23795 whole entry): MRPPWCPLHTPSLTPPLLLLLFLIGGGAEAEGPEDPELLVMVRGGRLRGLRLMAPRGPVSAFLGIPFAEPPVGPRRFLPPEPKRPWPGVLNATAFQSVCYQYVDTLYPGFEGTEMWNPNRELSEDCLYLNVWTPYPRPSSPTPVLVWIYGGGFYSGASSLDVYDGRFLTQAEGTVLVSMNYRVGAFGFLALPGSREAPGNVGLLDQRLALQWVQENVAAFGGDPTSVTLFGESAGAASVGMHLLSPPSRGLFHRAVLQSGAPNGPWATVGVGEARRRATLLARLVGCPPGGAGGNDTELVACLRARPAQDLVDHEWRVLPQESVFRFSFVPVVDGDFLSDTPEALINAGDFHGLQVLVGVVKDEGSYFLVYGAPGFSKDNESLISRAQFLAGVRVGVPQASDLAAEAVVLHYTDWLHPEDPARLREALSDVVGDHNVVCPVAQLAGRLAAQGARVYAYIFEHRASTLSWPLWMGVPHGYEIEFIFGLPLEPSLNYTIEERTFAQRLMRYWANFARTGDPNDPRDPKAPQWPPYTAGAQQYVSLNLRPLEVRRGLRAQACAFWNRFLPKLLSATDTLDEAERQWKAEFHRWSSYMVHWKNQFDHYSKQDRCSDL
Description: (§1) Inhibition of bovine erythrocytes AChE by Ellman's method

The target in data set [5] is T1, Beta-secretase 1.
Description: Inhibition of human recombinant BChE using panvera peptide as substrate preincubated for 60 mins before substrate addition by FRET assay
In data set [6] the target is Cholinesterase (Equus caballus, UniProt P81908).
Description: (§2) Inhibition of horse serum BChE by Ellman's method
Data set [7] addresses T3, Cholinesterase (Homo sapiens, UniProt P06276).
Description: Inhibition of human serum BChE by Ellman's method
Data set [8] addresses T3, Cholinesterase. The data set is described as follows: Ratio of tacrine IC50 to compound IC50 for human serum BChE.
In data set [9] the target is Cholinesterase (Equus caballus) (UniProt P81908).
Description: as §2
Data set [10] deals with T4, Acetylcholinesterase (Bos taurus) (UniProt P23795).
T4 sequence (whole entry): T2 sequence (P23795 whole entry)
Description: as §1

Calls of active or inactive are those of the source. The rule behind the calls is not given here. Starred links: 1 amine or outer side, 2 acyl side, 3 side chain; linkers in the order of their positions; H or OH if unused. Non-standard residues stand in square brackets, D forms with d. Residues, ends and D or L forms follow the SMILES beside them. LeuΨ(S-CHOHCH2)Ala = CC(C)C[C@H](N[*:1])[C@@H](O)C[C@@H](C)C(=O)[*:2]

Sequence of Cholinesterase (Equus caballus, UniProt P81908) (P81908 whole entry): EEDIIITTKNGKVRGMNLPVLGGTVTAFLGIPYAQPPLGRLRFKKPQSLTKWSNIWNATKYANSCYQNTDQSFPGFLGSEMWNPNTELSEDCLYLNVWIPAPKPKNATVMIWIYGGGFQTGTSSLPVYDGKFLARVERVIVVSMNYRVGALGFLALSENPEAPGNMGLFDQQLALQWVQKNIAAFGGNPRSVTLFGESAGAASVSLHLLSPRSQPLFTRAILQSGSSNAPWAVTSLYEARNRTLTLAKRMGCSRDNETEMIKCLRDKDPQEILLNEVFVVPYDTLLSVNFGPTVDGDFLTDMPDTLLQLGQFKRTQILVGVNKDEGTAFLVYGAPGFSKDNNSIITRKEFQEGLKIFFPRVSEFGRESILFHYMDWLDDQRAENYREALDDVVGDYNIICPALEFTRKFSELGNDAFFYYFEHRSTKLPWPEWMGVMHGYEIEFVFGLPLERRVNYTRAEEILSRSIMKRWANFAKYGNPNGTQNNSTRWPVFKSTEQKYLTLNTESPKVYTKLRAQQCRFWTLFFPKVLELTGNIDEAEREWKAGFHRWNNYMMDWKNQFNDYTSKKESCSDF
T3 sequence (P06276 whole entry): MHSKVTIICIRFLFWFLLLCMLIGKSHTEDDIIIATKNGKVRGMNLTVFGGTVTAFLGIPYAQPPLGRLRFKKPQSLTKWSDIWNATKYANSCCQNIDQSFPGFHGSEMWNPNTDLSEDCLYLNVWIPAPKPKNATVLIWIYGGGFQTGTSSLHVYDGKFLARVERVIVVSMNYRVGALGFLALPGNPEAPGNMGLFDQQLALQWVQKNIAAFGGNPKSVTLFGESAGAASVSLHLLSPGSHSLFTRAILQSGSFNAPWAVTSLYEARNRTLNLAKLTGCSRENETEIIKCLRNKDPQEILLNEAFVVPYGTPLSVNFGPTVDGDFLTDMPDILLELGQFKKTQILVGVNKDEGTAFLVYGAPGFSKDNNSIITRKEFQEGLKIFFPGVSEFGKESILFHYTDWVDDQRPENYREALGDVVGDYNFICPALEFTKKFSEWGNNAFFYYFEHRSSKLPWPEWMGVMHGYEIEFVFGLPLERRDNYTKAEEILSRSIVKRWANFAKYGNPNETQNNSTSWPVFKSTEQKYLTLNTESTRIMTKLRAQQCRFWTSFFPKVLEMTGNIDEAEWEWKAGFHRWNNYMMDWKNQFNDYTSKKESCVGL
T1 sequence (P56817 whole entry): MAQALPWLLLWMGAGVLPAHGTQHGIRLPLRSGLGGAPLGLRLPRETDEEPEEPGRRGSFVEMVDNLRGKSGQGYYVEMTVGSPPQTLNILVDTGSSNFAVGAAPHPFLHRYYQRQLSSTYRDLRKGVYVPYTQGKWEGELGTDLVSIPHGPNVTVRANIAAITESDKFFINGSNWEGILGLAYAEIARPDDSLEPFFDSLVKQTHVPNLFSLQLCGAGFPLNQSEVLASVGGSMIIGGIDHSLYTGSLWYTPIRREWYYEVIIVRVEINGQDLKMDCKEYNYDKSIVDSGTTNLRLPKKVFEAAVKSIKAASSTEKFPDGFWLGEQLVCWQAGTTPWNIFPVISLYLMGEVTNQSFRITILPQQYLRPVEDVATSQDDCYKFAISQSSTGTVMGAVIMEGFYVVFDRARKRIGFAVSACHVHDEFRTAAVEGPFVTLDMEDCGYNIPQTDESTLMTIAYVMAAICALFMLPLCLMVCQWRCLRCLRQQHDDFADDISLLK
Sequence of Acetylcholinesterase (Homo sapiens, UniProt P22303) (P22303 whole entry): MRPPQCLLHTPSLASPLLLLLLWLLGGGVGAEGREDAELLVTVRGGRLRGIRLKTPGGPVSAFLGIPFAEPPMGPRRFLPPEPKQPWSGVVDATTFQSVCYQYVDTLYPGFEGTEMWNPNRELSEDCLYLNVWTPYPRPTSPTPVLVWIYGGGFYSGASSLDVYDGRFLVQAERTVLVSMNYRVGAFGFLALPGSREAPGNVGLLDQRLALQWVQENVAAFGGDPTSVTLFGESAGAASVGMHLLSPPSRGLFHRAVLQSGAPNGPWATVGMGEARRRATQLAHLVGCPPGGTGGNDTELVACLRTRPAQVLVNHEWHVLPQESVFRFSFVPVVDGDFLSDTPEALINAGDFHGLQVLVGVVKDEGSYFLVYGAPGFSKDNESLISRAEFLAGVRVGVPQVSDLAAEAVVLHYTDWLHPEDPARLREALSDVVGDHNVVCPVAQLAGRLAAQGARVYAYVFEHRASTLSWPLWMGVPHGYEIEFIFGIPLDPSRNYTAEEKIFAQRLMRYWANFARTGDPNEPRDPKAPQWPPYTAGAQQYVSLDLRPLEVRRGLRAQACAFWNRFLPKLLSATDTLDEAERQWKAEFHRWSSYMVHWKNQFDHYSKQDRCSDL
Sequence of Cholinesterase (Equus caballus) (P81908 whole entry): as the sequence (P81908 whole entry) above

Usually Papp stands for a coefficient for how fast a substance crosses the barrier. Usually IC50 stands for the concentration needed to halve the response being measured. A low value points to inhibition by little substance. As to `Cl.O=C(NCCCCCCCCCCNc1c2c(nc3ccccc13)CCCC2)c1cc(=O)c2cc(O)ccc2o1`, in data set [1], the Papp was found to be 23.1 ×10⁻⁶ cm/s. Further, in data set [2], the Kic stood at 0.82 µM. Besides, the IC50 in data set [3] was 8 nM; in data set [4] it was 75 nM; in data set [5], 2800 nM; in data set [6], 1 nM; in data set [7], 1.5 nM.

Regarding `COc1cc(O)c2c(=O)cc(C(=O)NCCCCCCCCCCNc3c4c(nc5cc(Cl)cc(Cl)c35)CCCC4)oc2c1`, the IC50 in data set [4] was determined as 80 nM; in [6], 35 nM.

In the case of `COc1cc(OC)c2c(=O)cc(C(=O)NCCCCCCCCCCNc3c4c(nc5cc(Cl)ccc35)CCCC4)oc2c1.Cl`, the Papp in data set [1] was found to be 10.7 ×10⁻⁶ cm/s. For the same molecule, the IC50 turned out to be 0.35 nM in [3], 50 nM in [4], 1 nM in data set [6] and 0.1 nM in data set [7].

As for `O=C(NCCCCCCCCCCNc1c2c(nc3cc(Cl)cc(Cl)c13)CCCC2)c1cc(=O)c2cc(O)c(O)cc2o1`, the IC50 in [4] was found to be 90 nM; in [6] it was 88 nM.

On to `COc1ccc2oc(C(=O)NCCCCCCCCCCNc3c4c(nc5cc(Cl)cc(Cl)c35)CCCC4)cc(=O)c2c1`, for which the IC50 came to 550 nM in [4] and 7.5 nM in data set [6].

As to `COc1cc(OC)c2c(=O)cc(C(=O)NCCCCCCCCCCNc3c4c(nc5cc(Cl)cc(Cl)c35)CCCC4)oc2c1`, the values for the IC50 in [4] and in data set [6] were 150 nM and 0.75 nM, respectively.

`COc1cc2oc(C(=O)NCCCCCCCCCCNc3c4c(nc5cc(Cl)ccc35)CCCC4)cc(=O)c2cc1OC.Cl`: the Papp in data set [1] came out at 7.4 ×10⁻⁶ cm/s. The IC50 in data set [3] is 0.2 nM; in data set [4], 6.5 nM; in data set [6], 0.85 nM; in [7] it was 50 nM.

`COc1cc2oc(C(=O)NCCCCCCCCCCNc3c4c(nc5cc(Cl)cc(Cl)c35)CCCC4)cc(=O)c2cc1OC`: the figures for the IC50 in data set [4] and in [6] were 175 nM and 100 nM, respectively.

With `O=C(NCCCCCCCCNc1c2c(nc3ccccc13)CCCC2)c1cc(=O)c2ccccc2o1`, the results for the IC50 in data set [4] and in [6] were 150 nM and 0.5 nM, respectively.

For `O=C(NCCCCCCCCCCNc1c2c(nc3cc(Cl)cc(Cl)c13)CCCC2)c1cc(=O)c2cc(O)ccc2o1`, the IC50 in data set [4] turned out to be 350 nM; in data set [6] it was 17.5 nM.

In turn, `Cl.O=C(NCCCCCCCCCCNc1c2c(nc3ccccc13)CCCC2)c1cc(=O)c2c(O)cc(O)cc2o1` yielded a Papp in data set [1] of 13.1 ×10⁻⁶ cm/s. The Kic in data set [2] came to 1.06 µM. Besides, the IC50 in [3] was 2.3 nM; in [4] it was 500 nM; in data set [5], 3600 nM; in [6], 0.35 nM; in data set [7] it was 0.8 nM.

On to `Cl.O=C(NCCCCCCCCCCNc1c2c(nc3ccccc13)CCCC2)c1cc(=O)c2cc(O)c(O)cc2o1`, for which the Papp in data set [1] amounted to 6.3 ×10⁻⁶ cm/s. The IC50 worked out at 6.5 nM in [3], 300 nM in [4], 8 nM in data set [6] and 30 nM in data set [7].

In turn, `COc1cc2oc(C(=O)NCCCCCCCCCCNc3c4c(nc5ccccc35)CCCC4)cc(=O)c2cc1OC.Cl` registered a Papp in data set [1] of 15 ×10⁻⁶ cm/s. Besides, in data set [2], the Kic worked out at 0.88 µM. Also, the IC50 in data set [3] was determined as 1.8 nM; in [4] it was 85 nM; in [5], 3000 nM; in data set [6] it was 0.55 nM; in data set [7] it was 15 nM.

Take `Cl.O=C(NCCCCCCCCCCNc1c2c(nc3cc(Cl)ccc13)CCCC2)c1cc(=O)c2cc(O)c(O)cc2o1`: the Papp in [1] was 5.3 ×10⁻⁶ cm/s. The Kic in [2] was found to be 3.99 µM. Besides, the IC50 in data set [3] stood at 0.09 nM; in data set [4], 17.5 nM; in data set [5] it was 13600 nM; in data set [6], 28 nM; in data set [7], 95 nM.

`COc1cc(OC)c2c(=O)cc(C(=O)NCCCCCCCCCCNc3c4c(nc5ccccc35)CCCC4)oc2c1.Cl` yielded a Papp in data set [1] of 14.7 ×10⁻⁶ cm/s. Moreover, the Kic in [2] is 0.62 µM. The IC50 came to 2.3 nM in data set [3]; 100 nM in data set [4]; 2100 nM in [5]; 0.325 nM in [6]; 0.1 nM in data set [7].

`Cl.O=C(NCCCCCCCCCCNc1c2c(nc3cc(Cl)ccc13)CCCC2)c1cc(=O)c2c(O)cc(O)cc2o1`: the Papp in data set [1] is 7.8 ×10⁻⁶ cm/s. The IC50 in [3] was 0.065 nM; in [4], 10 nM; in [6], 3 nM; in [7], 2.5 nM.

As to `O=C(NCCCCCCCCCCNc1c2c(nc3cc(Cl)cc(Cl)c13)CCCC2)c1cc(=O)c2ccccc2o1`, the IC50 is 1000 nM in [4] and 100 nM in data set [6].

`CC(C)C[C@H](NC(=O)[C@H](CC(N)=O)NC(=O)[C@@H](NC(=O)[C@@H](N)CC(=O)O)C(C)C)[C@@H](O)C[C@@H](C)C(=O)N[C@@H](C)C(=O)N[C@@H](CC(=O)O)C(=O)N[C@@H](Cc1ccccc1)C(=O)O` (H-DVN[LeuΨ(S-CHOHCH2)Ala]ADF-OH): the Kic in [2] came to 0.0097 µM. In data set [5], this molecule returned an IC50 of 33 nM.

With `COc1cc(O)c2c(=O)cc(C(=O)NCCCCCCCCCCNc3c4c(nc5cc(Cl)ccc35)CCCC4)oc2c1.Cl`, in data set [1], the Papp amounted to 8.7 ×10⁻⁶ cm/s. The IC50 in data set [3] was 0.035 nM; in data set [4], 38 nM; in [6], 0.175 nM; in [7], 5 nM.

Regarding `O=C(NCCCCCCCCCNc1c2c(nc3ccccc13)CCCC2)c1cc(=O)c2ccccc2o1`, the IC50 in [4] came to 125 nM; in [6] it was 0.58 nM.

Turning to `COc1cc(O)c2c(=O)cc(C(=O)NCCCCCCCCCCNc3c4c(nc5ccccc35)CCCC4)oc2c1.Cl`, the apparent permeability (Papp) in data set [1] was 10.6 ×10⁻⁶ cm/s. In addition, in data set [2], the Kic was determined as 0.85 µM. Moreover, the IC50 in data set [3] came out at 1 nM; in [4], 250 nM; in data set [5] it was 2900 nM; in data set [6] it was 2 nM; in data set [7], 1 nM.

Take `O=C(NCCCCCCCCCCNc1c2c(nc3cc(Cl)cc(Cl)c13)CCCC2)c1cc(=O)c2c(O)cc(O)cc2o1`: the IC50 in data set [4] is 75 nM; in [6] it was 35 nM.

As for `Cl.O=C(NCCCCCCCCCCNc1c2c(nc3cc(Cl)ccc13)CCCC2)c1cc(=O)c2cc(O)ccc2o1`, in [1], the Papp is 11.5 ×10⁻⁶ cm/s. Further, the IC50 amounted to 1 nM in [3], 80 nM in data set [4], 3.5 nM in [6] and 1.5 nM in data set [7].

Take `Cl.O=C(NCCCCCCCCCCNc1c2c(nc3cc(Cl)ccc13)CCCC2)c1cc(=O)c2ccccc2o1`: the Papp in data set [1] came out at 7.1 ×10⁻⁶ cm/s. The Kic in data set [2] stood at 6.58 µM. The IC50 in [3] turned out to be 0.3 nM; in data set [4] it was 5 nM; in data set [5] it was 22400 nM; in data set [6], 0.18 nM; in data set [7], 0.08 nM.

In the case of `O=C(NCCCCCCCNc1c2c(nc3ccccc13)CCCC2)c1cc(=O)c2ccccc2o1`, the half-inhibitory concentration (IC50) in data set [4] came out at 100 nM; in [6], 1.75 nM.

`O=c1cc(-c2ccc(O)cc2)oc2cc(O)cc(O)c12` [APIGENIN]: the Kic in data set [2] worked out at 11.3 µM. Moreover, the IC50 in data set [5] was 38500 nM.

On to `O=C(NCCCCCCCCCCCCNc1c2c(nc3ccccc13)CCCC2)c1cc(=O)c2ccccc2o1`, for which the IC50 came out at 150 nM in [4] and 0.25 nM in [6].

`COc1ccc2oc(C(=O)NCCCCCCCCCCNc3c4c(nc5cc(Cl)ccc35)CCCC4)cc(=O)c2c1.Cl` came in with a Papp in data set [1] of 7.5 ×10⁻⁶ cm/s. Further, the Kic in data set [2] worked out at 4.23 µM. Besides, the IC50 turned out to be 0.1 nM in [3]; 5 nM in data set [4]; 14400 nM in data set [5]; 0.425 nM in data set [6]; 0.1 nM in data set [7].

Take `COc1ccc2oc(C(=O)NCCCCCCCCCCNc3c4c(nc5ccccc35)CCCC4)cc(=O)c2c1.Cl`: in [1], the Papp was 14.9 ×10⁻⁶ cm/s. The Ratio IC50 in [8] came out at 1050. Also, the IC50 in [3] worked out at 0.775 nM; in data set [4], 35 nM; in data set [6], 0.324 nM; in [7], 0.038 nM.

In turn, `Cl.O=C(NCCCCCCCCCCNc1c2c(nc3ccccc13)CCCC2)c1cc(=O)c2ccccc2o1` had a Papp in data set [1] of 9.1 ×10⁻⁶ cm/s. In addition, the half-inhibitory concentration (IC50) in data set [3] was determined as 17.5 nM; in data set [4], 75 nM; in data set [6], 0.18 nM; in data set [7], 0.15 nM.

For the molecule `O=C(O)c1cc(=O)c2ccccc2o1`, the inhibition entry in data set [9] and in data set [10] was “inactive” throughout.

The values above are taken from ChEMBL document CHEMBL2016543, “New tacrine-4-oxo-4H-chromene hybrids as multifunctional agents for the treatment of Alzheimer's disease, with cholinergic, antioxidant, and β-amyloid-reducing properties” (J Med Chem, 2012).
